These results are taken from patent publication US20110229570A1, “ORALLY RAPIDLY DISINTEGRATING TABLET AND PROCESS FOR PRODUCING SAME” (priority 2008, published 2011).

A short description of data set [1]: Hardness of tablet (tablet hardness tester). It is filed as physicochemical. The settings on record: 1000 kg/punch; for Hardness, tablet obtained by compressing an excipient only: 300 mg tablet, flat punch 10 mm; for Hardness, tablet obtained by compressing a mixture of an excipient and a water-insoluble polymer: 300 mg. How it is done: A hardness of tablet was measured using a tablet hardness tester (manufactured by Schleuniger, type: 6D). The measurement was carried out thrice, and a hardness of tablet was obtained on an average thereof.

Data set [2] is described as follows: Water wettability (wetness time) of tablet. Conditions: 1000 kg/punch; for Wetness time, tablet obtained by compressing an excipient only: 300 mg tablet, flat punch 10 mm; for Wetness time, tablet obtained by compressing a mixture of an excipient and a water-insoluble polymer: 300 mg. It is filed as physicochemical. How it is done: A water wettability (wetness time) of a tablet was measured in accordance with a known procedure [Chem. Pharm. Bull. 44 (1), 2121-2127 (1996)] as below. Specifically, purified water (6 mL) was put in a weighing dish, and thereon were placed quarto tissue papers (205 mm×120 mm, KimWipe S-200, manufactured by NIPPON PAPER CRECIA Co., LTD). The papers were entirely moistened, and then thereon was gently placed one tablet, and a wetness time required for entirely moistening the tablet was measured.

Where [3] appears, read: (*2) 90 parts excipient + 10 parts HPMC-AS HF.
The mark [4] stands for this setting: (*1) 97 parts excipient + 3 parts HPMC-AS HF.

With `OC[C@H]1O[C@@](CO)(O[C@H]2O[C@H](CO)[C@@H](O)[C@H](O)[C@H]2O)[C@@H](O)[C@@H]1O` [Purified sucrose], the “Hardness, tablet obtained by compressing an excipient only” value in data set [1] amounted to 41 N. For the same compound, the “Wetness time, tablet obtained by compressing an excipient only” value in data set [2] came out at 3 s.
For `OC[C@@H](O)[C@H](O)[C@@H](O)CO` [Xylitol], the “Hardness, tablet obtained by compressing an excipient only” value in data set [1] is 12 N. The “Hardness, tablet obtained by compressing a mixture of an excipient and a water-insoluble polymer” value in data set [1] (setting [3]) is given as 38 (*2) N. Besides, in data set [2], the “Wetness time, tablet obtained by compressing an excipient only” value stood at 3 s. In data set [2] (setting [3]), the “Wetness time, tablet obtained by compressing a mixture of an excipient and a water-insoluble polymer” value is listed as 74 (*2) seconds.
With `OC[C@@H](O)[C@@H](O)CO` [Erythritol], the “Hardness, tablet obtained by compressing an excipient only” value in data set [1] is under 4 N. The “Hardness, tablet obtained by compressing a mixture of an excipient and a water-insoluble polymer” value in data set [1] (setting [3]) is recorded as 23 (*2) N. Further, in data set [2] (setting [3]), the “Wetness time, tablet obtained by compressing a mixture of an excipient and a water-insoluble polymer” value is on record as 37 (*2) seconds.
With `OC[C@@H](O)[C@@H](O)[C@H](O)[C@@H](O)CO` [Sorbitol], the “Hardness, tablet obtained by compressing an excipient only” value in data set [1] is recorded as 229 N. Further, in data set [1] (setting [4]), the “Hardness, tablet obtained by compressing a mixture of an excipient and a water-insoluble polymer” value is reported as 207 (*1) N. The “Wetness time, tablet obtained by compressing an excipient only” value in data set [2] is over 300 s. For the same compound, in data set [2] (setting [4]), the “Wetness time, tablet obtained by compressing a mixture of an excipient and a water-insoluble polymer” value was >300 (*1) seconds.
On to `OC[C@@H](O)[C@@H](O)[C@H](O)[C@H](O)CO` [D-mannitol], for which the “Hardness, tablet obtained by compressing an excipient only” value in data set [1] was determined as 12 N. Further, in data set [1] (setting [4]), the “Hardness, tablet obtained by compressing a mixture of an excipient and a water-insoluble polymer” value was 53 (*1) N. Further, in data set [2], the “Wetness time, tablet obtained by compressing an excipient only” value stood at 18 s. The “Wetness time, tablet obtained by compressing a mixture of an excipient and a water-insoluble polymer” value in data set [2] (setting [4]) was 43 (*1) seconds.
